These results are taken from patent publication US6479487B1, “6, 9-disubstituted 2-[trans-(4-aminocyclohexyl)amino] purines” (Aventis Pharmaceuticals Inc., priority 1998, dated 2002).

Where “and” joins values, the source holds several entries; their conditions need not be identical. Equal entries are not always repeated. Structures can show the parent of a compound that is named as a salt. Where two headings read alike, the source gives them in different places.

One experiment deals with T1, cdk2/cyclin E (Homo sapiens, UniProt P24941).
T1 construct: made in house; host or cells: insect cells (baculovirus co-infection)
Nature of the experiment: Cyclin-Dependent Kinase 2 Assay (cdk2/cyclin E, GST-Rb substrate). It is filed as biochemical. The settings on record: recombinant cdk2/cyclin E, 10 μM ATP, 30 min at 30° C., several values in a cell = separate determinations, read-out: CDK-2 Inhibition IC50. As for the experimental part:
Substrate: GST-Rb as described above for cdk4/cyclin D1
Assay conditions for cdk2/cyclin E were identical to those for cdk4/cyclin D1 including the substrate. The concentration of recombinant cdk2/cyclin E in the assay was 0.1 μg per 100 μl assay. Incubation was for 30 min at 30° C.

A further experiment addresses T2, cdk4/cyclin D1 (Homo sapiens, UniProt P11802).
T2 construct: made in house; host or cells: Sf9 insect cells (Bac-to-Bac baculovirus, pFastBac)
Nature of the experiment: Cyclin-dependent Kinase 4 Assay (cdk4/cyclin D1, GST-Rb substrate). It counts as biochemical. Conditions: cdk4/cyclin D1 insect cell lysate, 10 μM ATP, 30 min at 37° C., several values = separate determinations, read-out: CDK4 Inhibition IC50. As for the experimental part: The IC50 values for cdk4 inhibition were by the following method:
The transformed bacteria were grown overnight to saturation, then diluted in YT broth and incubated at 37° C. for 2 h. The protein was induced by incubation with 0.1 mM isopropylthioglycoside for 3 h. Following sedimentation by centrifugation, the cells were lysed by sonication in STE buffer ([…] NaCl, 10 mM Tris, pH 8.0, 1 mM EDTA) containing 10% sarkosyl. Particulate matter was removed by centrifugation and the lysate was incubated with glutathione-Sepharose at 4° C. The beads were washed with kinase buffer and then quantitation of Coomassie blue-stained proteins separated by SDS-PAGE was performed using a protein standard of known concentration.
The cDNA for human cyclin D1 was cloned by RT PCR using […] from MCF-7 cells. […] Bacmid DNA was used to transfect Sf9 insect cells to produce recombinant virus. Following plaque purification of the virus, the viral preparations were amplified until high titer stocks were acheived.
Lysates were prepared by lysis of Sf9 cells coinfected with cdk4 and cyclin D1 in 50 mM HEPES, pH 7.5, 10 mM MgCl2, 1 mM DTT, 0.1 mM phenylmethylsulfonyl fluoride, 5 μg/ml aprotinin, and 5 μg/ml leupeptin using a PARR bomb under 500 p.s.i nitrogen pressure for 5 min at 4° C. Insoluble material was sedimented at 10,000×g for 20 min at 4° C. Glycerol was added to the supernatant to 10% and stored at −80° C. in aliquots.
Pre-wet Millipore Multiscreen 96-well filter plates (0.65 μm Durapore filters) with 200 μl kinase buffer (50 mM HEPES, pH 7.5, 10 mM MgCl2, 1 mM EGTA). GST-Rb (0.5 μg) bound to glutathione-Sepharose beads is added in 50 μl per well and the solution removed by application of vacuum. […] Add 0.1 μg cdk4/cyclin D1 (insect cell lysate) to initiate assay. Incubate 30 min at 37° C. Terminate reaction by filtration on Millipore Vacuum Manifold. Wash four times with TNEN (20 mM Tris, pH 8.0, 100 mM Na Cl, 1 mM EDTA, 0.5% nonidet P-40). After drying the plates at room temperature, the filter plates were placed in adapter plates (Packard) and 40 μl of Microscint-O® (Packard) was added to each well. Top Seal A film was used to cover the plates before counting in a Top Count Scintillation Counter.

For another experiment, the system named is PC-3. In words: In vitro tumor cell proliferation, PC-3. It is filed as cell-based, human. Conditions: many values given with an undefined *, read-out: In vitro Tumor Cell Proliferation (IC50, μM) Prostate PC-3. As for the experimental part:
(§1) The proliferation of tumor cells was measured using a sulforhodamine B assay as described in Skehan, P., et al., J. Natl. Cancer Inst. […] Tumor cells were harvested with trypsin-EDTA, cells that excluded trypan blue were counted, added to 96-well plates and incubated overnight at 37° C. Drug was added to the wells following dilution in culture medium. Three days later, the medium was removed and replenished with medium containing fresh drug and incubated an additional 4 days. The cells were then fixed with 0.1 ml 10% trichloroacetic acid for 60 min at 4° C. The plates were rinsed five times with tap water, air-dried and stained for 30 min with 0.4% sulforhodamine B in 1% acetic acid and air-dried.
(§2) Alternatively, the CyQUANT cell proliferation assay was used to quantitate cell proliferation.
(§3) Alternatively, the CyQUANT cell proliferation assay was used to quantify tumor cell proliferation. Tumor cells were harvested with trypsin-EDTA, cells that excluded trypan blue were counted, added to 96-well plates and incubated overnight at 37° C. Drug was added to the wells following dilution in culture medium. Three days later the medium was removed and the plates frozen at −80° C. for at least 30 minutes.

A further experiment has as its system Colo-205. In words: In vitro tumor cell proliferation, Colo-205. It counts as cell-based. The settings on record: values given with an undefined *, read-out: In vitro Tumor Cell Proliferation (IC50, μM) Colon Colo-205. Here is the method:
as §1, §2, §3

The test system of the next experiment is HT-29. Nature of the experiment: In vitro tumor cell proliferation, HT-29. It counts as cell-based, human. Conditions: many values given with an undefined *, read-out: In vitro Tumor Cell Proliferation (IC50, μM) Colon HT-29. Here is the method: as §1, §2, §3
HT-29 is a human colon adenocarcinoma, moderately well-differentiated grade II (HTB 38);

The subject of the next experiment is DMS-114. Nature of the experiment: In vitro tumor cell proliferation, DMS-114. It is filed as cell-based, human. Conditions: many values given with an undefined *, read-out: In vitro Tumor Cell Proliferation (IC50, μM) Lung DMS-114. Here is the method:
DMS-1 14: human small cell lung carcinoma;
as §1, §2, §3

The next experiment concerns MDA-MB-435. Nature of the experiment: In vitro tumor cell proliferation, MDA-MB-435. It is filed as cell-based. The settings on record: values given with an undefined *, read-out: In vitro Tumor Cell Proliferation (IC50, μM) Breast MDA-MB-435. As for the experimental part: as §1, §2, §3
The next experiment concerns A549. In words: In vitro tumor cell proliferation, A549. Conditions: many values given with an undefined *, read-out: In vitro Tumor Cell Proliferation (IC50, μM) Lung A549. It counts as cell-based, human. Here is the method:
as §1, §2, §3

A further experiment deals with MDA-MB-231. In words: In vitro tumor cell proliferation, MDA-MB-231. It is filed as cell-based, human. The settings on record: sulforhodamine B or CyQUANT assay, many values given with an undefined *, read-out: In vitro Tumor Cell Proliferation (IC50, μM) Breast MDA-MB-231. As for the experimental part:
as §1, §2, §3
MDA-MB-23 1 is a human breast adenocarcinoma, hormone-independent (HTB 26);

In a further experiment the test system is DU145. Nature of the experiment: In vitro tumor cell proliferation, DU145. The settings on record: many values given with an undefined *, read-out: In vitro Tumor Cell Proliferation (IC50, μM) Prostate DU145. It counts as cell-based, human. As for the experimental part: as §1, §2, §3
[1] abbreviates: Homo sapiens, COLO 205, Colo-205.
The mark [2] stands for this setting: Homo sapiens, MDA-MB-435, MDA-MB-435.
Setting [3] is: Homo sapiens, MDA-MB-231, MDA-MB-231.

T2 sequence (P11802 whole entry): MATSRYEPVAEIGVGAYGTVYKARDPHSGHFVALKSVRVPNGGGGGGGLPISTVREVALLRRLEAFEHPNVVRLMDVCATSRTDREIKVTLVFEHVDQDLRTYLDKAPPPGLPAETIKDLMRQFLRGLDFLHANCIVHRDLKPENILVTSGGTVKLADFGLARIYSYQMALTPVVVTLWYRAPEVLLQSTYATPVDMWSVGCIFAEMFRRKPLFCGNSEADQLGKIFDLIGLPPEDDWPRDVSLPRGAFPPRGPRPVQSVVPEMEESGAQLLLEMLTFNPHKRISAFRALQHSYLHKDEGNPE
T2 sequence (P24385 whole entry partner): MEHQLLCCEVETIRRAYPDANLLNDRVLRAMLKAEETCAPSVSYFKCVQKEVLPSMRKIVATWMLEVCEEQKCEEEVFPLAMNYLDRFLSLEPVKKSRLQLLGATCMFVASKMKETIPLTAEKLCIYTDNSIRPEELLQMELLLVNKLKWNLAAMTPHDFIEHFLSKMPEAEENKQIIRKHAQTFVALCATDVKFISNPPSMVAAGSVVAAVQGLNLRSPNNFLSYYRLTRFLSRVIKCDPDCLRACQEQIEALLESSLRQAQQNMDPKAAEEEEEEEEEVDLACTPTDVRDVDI

Regarding `COCCOCCCNc1nc(N[C@H]2CC[C@H](N)CC2)nc2c1ncn2C1CCCC1` [Example 15, 2-[Trans-(4-aminocyclohexyl)amino]-6-[3-(2-methoxyethoxy)propylamino]-9-cyclopentylpurine dihydrochloride], the IC50 on cdk2/cyclin E was 16 nM; on cdk4/cyclin D1, 40 nM; with PC-3 (Homo sapiens, PC-3, PC-3) it was 1.4 µM; with PC-3 (PC-3, dihydrochloride), 1.2 µM; in the experiment with Colo-205 (Colo-205, dihydrochloride) it was 1.7 µM; with Colo-205 (setting [1]), 1.6 µM. For the same compound, the IC50 with HT-29 (Homo sapiens, HT-29, HT-29) is 2.1 µM; in the experiment with DMS-114 (DMS-114, dihydrochloride) it was 1.9 µM; in the experiment with DMS-114 (Homo sapiens, DMS-114, DMS-114), 1.8 µM.

As for `N[C@H]1CC[C@H](Nc2nc(NCCOCCO)c3ncn(C4CCCC4)c3n2)CC1` [Example 26, 2-[Trans-(4-aminocyclohexyl)amino]-6-(2-hydroxyethoxyethylamino)-9-cyclopentylpurine dihydrochloride], the IC50 on cdk2/cyclin E was 110 nM; at cdk4/cyclin D1, 530 nM and 520 nM; with PC-3 (Homo sapiens, PC-3, PC-3), 15 µM; in the experiment with PC-3 (PC-3, dihydrochloride), 8 µM; in the experiment with MDA-MB-435 (setting [2]), 23 µM; in the experiment with MDA-MB-435 (MDA-MB-435, dihydrochloride), 22 µM. Further, the IC50 is 15 µM with Colo-205 (Colo-205, dihydrochloride); 17 µM in the experiment with A549 (A549, dihydrochloride); 22 µM with HT-29 (HT-29, dihydrochloride); 15 µM in the experiment with DMS-114 (DMS-114, dihydrochloride); 17 µM in the experiment on DMS-114 (Homo sapiens, DMS-114, DMS-114).

For `COCCCNc1nc(N[C@H]2CC[C@H](N)CC2)nc2c1ncn2C1CCCC1` [Example 22, 2-[Trans-(4-aminocyclohexyl)amino]-6-(3-methoxypropylamino)-9-cyclopentylpurine dihydrochloride], the IC50 at cdk2/cyclin E is 370 nM; in the experiment with MDA-MB-231 (setting [3]), 4.2 µM; with MDA-MB-231 (MDA-MB-231, dihydrochloride), 8.2 µM; on cdk4/cyclin D1 it was 400 nM and 1300 nM and 570 nM; in the experiment on PC-3 (Homo sapiens, PC-3, PC-3), 2.5 µM; with PC-3 (PC-3, dihydrochloride), 2.3 µM. Further, the IC50 in the experiment with MDA-MB-435 (setting [2]) was 10 µM; with MDA-MB-435 (MDA-MB-435, dihydrochloride), 11 µM; with Colo-205 (Colo-205, dihydrochloride) it was 5.3 µM; in the experiment with Colo-205 (setting [1]), 3.9 µM; with HT-29 (HT-29, dihydrochloride), 4.4 µM; in the experiment with HT-29 (Homo sapiens, HT-29, HT-29), 4 µM. For the same compound, the IC50 in the experiment with DMS-114 (DMS-114, dihydrochloride) is 2.8 µM; in the experiment with DMS-114 (Homo sapiens, DMS-114, DMS-114) it was 2.7 µM.

As to `COc1ccc(CCNc2nc(N[C@H]3CC[C@H](N)CC3)nc3c2ncn3C2CCCC2)cc1` [Example 14, 2-[Trans-(4-aminocyclohexyl)amino]-6-[2-(4-methoxyphenyl)ethylamino]-9-cyclopentylpurine dihydrochloride], the IC50 worked out at 100 nM on cdk2/cyclin E; 3 µM in the experiment on MDA-MB-231 (setting [3]); 1500 nM on cdk4/cyclin D1; 2.3 µM in the experiment with PC-3 (Homo sapiens, PC-3, PC-3); 2.8 µM in the experiment on DU145 (Homo sapiens, DU-145, DU145); 2.4 µM with Colo-205 (setting [1]). The IC50 with A549 (Homo sapiens, A549, A549) was found to be 1.4 µM; in the experiment on HT-29 (Homo sapiens, HT-29, HT-29) it was 2.7 µM; in the experiment with DMS-114 (Homo sapiens, DMS-114, DMS-114) it was 1.3 µM.

For the compound `N[C@H]1CC[C@H](Nc2nc(NCC3CCC(CO)CC3)c3ncn(C4CCCC4)c3n2)CC1` (stereo partly drawn) [Example 10, 2-[Trans-(4-aminocyclohexyl)amino]-6-[4-(hydroxymethyl)cyclohexanemethylamino]-9-cyclopentylpurine dihydrochloride], the IC50 on cdk2/cyclin E was 16 nM and 13 nM; at cdk4/cyclin D1, 1600 nM; in the experiment with PC-3 (Homo sapiens, PC-3, PC-3) it was 1.1 µM; in the experiment on PC-3 (PC-3, dihydrochloride), 1 µM; in the experiment on DU145 (DU145, dihydrochloride) it was 2.6 µM; in the experiment with DU145 (Homo sapiens, DU-145, DU145), 1.3 µM. The IC50 was 2.6 µM with Colo-205 (Colo-205, dihydrochloride); 1.3 µM in the experiment with Colo-205 (setting [1]); 2.6 µM in the experiment on A549 (A549, dihydrochloride); 1.3 µM in the experiment with A549 (Homo sapiens, A549, A549); 1.7 µM in the experiment with HT-29 (HT-29, dihydrochloride); 1.6 µM in the experiment with HT-29 (Homo sapiens, HT-29, HT-29). The IC50 stood at 1.4 µM in the experiment on DMS-114 (DMS-114, dihydrochloride) and 1.5 µM in the experiment on DMS-114 (Homo sapiens, DMS-114, DMS-114).

In the case of `N[C@H]1CC[C@H](Nc2nc(NCCNc3ccccc3)c3ncn(C4CCCC4)c3n2)CC1` [Example 31, 2-[Trans-(4-aminocyclohexyl)amino]-6-[2-(phenylamino~ethylamino]-9-cyclopentylpurinetrihydrochloride], the IC50 at cdk2/cyclin E was determined as 400 nM; in the experiment with MDA-MB-231 (setting [3]) it was 2.1 µM; with MDA-MB-231 (MDA-MB-231, trihydrochloride), 2.4 µM; on cdk4/cyclin D1, 100 nM; with PC-3 (Homo sapiens, PC-3, PC-3), 2.3 µM; in the experiment on PC-3 (PC-3, trihydrochloride) it was 1.9 µM. The IC50 in the experiment with DU145 (DU145, trihydrochloride) was found to be 1.8 µM; in the experiment on DU145 (Homo sapiens, DU-145, DU145) it was 1.9 µM; in the experiment on MDA-MB-435 (setting [2]), 3.1 µM; with MDA-MB-435 (MDA-MB-435, trihydrochloride), 2.6 µM; in the experiment on A549 (A549, trihydrochloride), 2.1 µM; with A549 (Homo sapiens, A549, A549), 1.6 µM. For the same compound, the IC50 in the experiment on HT-29 (HT-29, trihydrochloride) came out at 2.5 µM; in the experiment on HT-29 (Homo sapiens, HT-29, HT-29) it was 2.4 µM; in the experiment on DMS-114 (DMS-114, trihydrochloride) it was 1.8 µM; with DMS-114 (Homo sapiens, DMS-114, DMS-114), 2.4 µM.
